Assay results: patent publication US20100069345A1, “Lanthanide-porphyrin complexes as anti-tumor agents” (priority 2005, published 2010)

Experiments:
[1] = system: human breast cancer cells (MCF-7); assay: MTT cell viability assay, MCF-7; assay type: cell-based; settings: MTT, 37° C., 48 h; mean ± SD
Excerpt: (§1) Human cervical epitheloid carcinoma cells (HeLa), human hepatocellular carcinoma cells (HepG2 and Hep3B), human breast cancer cells (MCF-7), human coloadenocarcinoma cells (HCT-8), and normal human lung fibroblast cells (CCD-19Lu) were purchased from American Type Culture Collection (ATCC) Rockville, Md., USA. The human hepatocellular cancinoma cells QGY-7703, and the multi-drug resistant cell line QGY-TR50 derived from QGY-7703, were generously provided by Prof. Yong Xie (The Hong Kong University of Science and Technology, Hong Kong PRC). QGY-TR50 cells were isolated and cultured as described (J. Zhou, S. C. Cheng, D. Luo, Y. Xie Biochem. Biophys. Res. Commun. 2001, 280, 1237-1242). Human nasopharyngeal carcinoma cells (SUNE1 and its cisplatin-resistant variant—CNE2) were derived from poorly differentiated NPC in Chinese patients and were generously provided by Dr. S. W. Tsao (The University of Hong Kong, Hong Kong PRC). Cell culture flasks and 96-well microtitre plates were from Nalge Nunc Int. Culture medium, other medium constituents and phosphate buffer saline (PBS) were obtained by Gibco BRL Rockville, Md., USA. Cell Proliferation kit I (MTT) was purchased from Roche. Mannheim, Germany.

[2] = system: normal human lung fibroblast cells (CCD-19Lu); assay: MTT cell viability assay, CCD-19Lu; assay type: cell-based; settings: for IC50: MTT, 37° C., 48 h, mean ± SD; for IC50 ratio cisplatin/complex, CCD-19Lu: IC50 of cisplatin divided by IC50 of complex
Excerpt: as §1

[3] = system: cisplatin-resistant variant (CNE2) of human nasopharyngeal carcinoma cells; assay: MTT cell viability assay, CNE2; assay type: cell-based; settings: for IC50: MTT, 37° C., 48 h, mean ± SD
Excerpt: as §1

[4] = system: human coloadenocarcinoma cells (HCT-8); assay: MTT cell viability assay, HCT-8; assay type: cell-based; settings: for IC50: MTT, 37° C., 48 h, mean ± SD; for IC50 ratio cisplatin/complex, HCT-8: IC50 of cisplatin divided by IC50 of complex
Excerpt: as §1

[5] = system: human hepatocellular carcinoma cells (Hep3B); assay: MTT cell viability assay, Hep3B; assay type: cell-based; settings: 37° C., 48 h, mean ± SD
Excerpt: as §1

[6] = system: human nasopharyngeal carcinoma cells (SUNE1); assay: MTT cell viability assay, SUNE1; assay type: cell-based; settings: for IC50: MTT, 37° C., 48 h, mean ± SD; for IC50 ratio cisplatin/complex, SUNE1: IC50 of cisplatin divided by IC50 of complex
Excerpt: as §1

[7] = system: multi-drug resistant cell line QGY-TR50; assay: MTT cell viability assay, QGY-TR50; assay type: cell-based, human; settings: MTT, 37° C., 48 h; mean ± SD
Excerpt: as §1

[8] = system: human cervical epitheloid carcinoma cells (HeLa); assay: MTT cell viability assay, HeLa; assay type: cell-based; settings: for IC50: MTT, 37° C., 48 h, mean ± SD of three experiments; for IC50 ratio cisplatin/complex, HeLa: IC50 of cisplatin divided by IC50 of complex
Excerpt: as §1

[9] = system: human hepatocellular cancinoma cells QGY-7703; assay: MTT cell viability assay, QGY-7703; assay type: cell-based; settings: MTT, 37° C., 48 h; mean ± SD
Excerpt: as §1

[10] = system: human hepatocellular carcinoma cells (HepG2); assay: MTT cell viability assay, HepG2; assay type: cell-based; settings: for IC50: MTT, 37° C., 48 h, mean ± SD
Excerpt: as §1

[11] = system: HeLa cells; assay: Effect of 3-MA on 1-induced cytotoxicity (MTT); assay type: cell-based, human; settings: 3-MA 10 mM
Method: HeLa cells were pre-treated with 3-MA (10 mM) for 1 h, and then with 1 for 24 h as indicated. Cell viability was measured using MTT assay *, P<0.001. Effect of 3-MA on 1-induced cytotoxicity. Cells were seeded on 96-well microtitre plates (8×10^3 cells per well). After overnight incubation, the cells were pre-incubated with 3-methyladenine (3-MA, 10 mM) for 1 hour and then in the presence of 1 (DMSO<1%) for 24 h. Cell viability was measured by MTT assay as described before.

[12] = Stability by UV-visible in presence of reduced glutathione; assay type: physicochemical; settings: 6 mM GSH in DMSO/Tris buffer solution (1:9)
Method: Moreover, concomitant band broadening in spectrum of complex 1 was observed after 24 h. No significant spectral shift and formation of new absorption band were observed. […] Comparing with the spectra of complex 1, the decrease in Soret band intensity of complex 2b is less significant. The intensities are only found to decrease in 2% and 19% after 2 h and 24 h, respectively. Also, there is no significant spectral shift and formation of new absorption band were observed (FIG. 8).

[13] = system: calf thymus DNA; assay: Absorption titration with calf thymus DNA; assay type: binding; settings: Tris buffer
Method: The calf thymus DNA was purchased from Sigma-Aldrich Chemical Co. and was purified by phenol-chloroform extraction. The DNA was dissolved in buffer (5 mM Tris, 5 mM NaCl, pH 7.2). The concentration (per base pair) or calf thymus DNA was determined spectophotometrically on the basic of ε260, 13200 M^−1cm^−1bp.
Absorption Titration. Studying the interaction between drugs and DNA is imperative to pharmaceutical chemistry. Since complexation between a ligand molecule and a nucleic acid leads to optical changes, its binding can be studied using spectroscopic methods like fluorescence and electronic absorption spectroscopy (C. V. Kumar, E. H. Asuncion, J. Am. Chem. Soc. 1993, 115, 8547-8553). The binding interactions of lanthanide (III) porphyrin complexes with calf thymus DNA were investigated using UV-vis spectroscopy and depicted in FIGS. 9 and 10 (selected absorption curves were shown for clear plot). By monitoring wavelengths at 410 nm (complex 1) and 430 nm (complex 2b), successive additions of calf thymus DNA to the respective complexes in Tris buffer solution containing <5% DMSO were done until saturation. Moderate hyprochromicities of 27% and 23% in complexes 1 and 2b were found without significant bathochromic spectral shift. […] The values of binding constant K were calculated from a plot of D/Δεap versus D based on the following equation:
Where D is the concentration of DNA, Δεap=|ΔεA−ΔεB| wherein εA=Aobs/[complex], and Δε=|ΔεB−ΔεF|; εB and εF correspond to the extinction coefficients of DNA-bound lanthanide(III) porphyrin complex adduct and its free complex, respectively. By monitoring absorbance at 410 nm (complex 1) and 430 nm (complex 2b), plots of D/Δεap against D are inserted in FIGS. 9 and 10. Linear curves in two graphs were plotted with slopes of 4.63×10^−5 (complex 1) and 3.60×10^−5 (complex 2b) (both R=0.99).

[14] = system: HeLa cells; assay: Confocal microscopy with AO/EB staining; assay type: cell-based, human; settings: complex 1 0.2 μM 20 h, complex 2b 10 μM 16 h
Excerpt: Confocal Microscopic Experiment. By examining cell morphology under scanning confocal microscopy, the type of cell death can be distinguished. Early phase of apoptosis is characterized by the formation of apoptotic bodies when the integrity of the cell membrane is maintained without cell lysis. On the other hand, necrosis is characterized by cell lyses with the leaking out of internal cellular components such as DNA. With ethidium bromide (DNA stain) and acridine orange (cell membrane stain) as staining agents, normal, apoptotic and necrotic cells can be distinguished under laser confocal microscopy (Chan et. al., Inorg. Chem. 2002, 41, 3161-3171).

[15] = Stability by UV-visible in DMSO/Tris buffer; assay type: physicochemical; settings: DMSO/Tris buffer solution (1:9), 24 h, room temperature; complex 1 3 μM, complex 2b 7 μM
Method: UV-visible experiments. The absorption spectra of 3 μM of complex 1 in DMSO/Tris buffer solution (1:9) were monitored for 24 h. […] The complex was monitored over 24 h at room temperature and about 23% decrease in the Soret band intensity was recorded without any significant spectral shift in both Soret and Q-bands (FIG. 5). The absorption spectra of 7 μM of complex 2b in DMSO/Tris buffer solution (1:9) were also monitored for 24 h.

[16] = IC50 of cisplatin divided by IC50 of complex

IC50 [1] [µM]	IC50 [4] [µM]	IC50 [6] [µM]	IC50 [8] [µM]	IC50 ratio cisplatin/complex, HCT-8 [4]	IC50 ratio cisplatin/complex, SUNE1 [6]	IC50 ratio cisplatin/complex, HeLa [8]	Compound	IC50 [2] [µM]	IC50 [3] [µM]	IC50 [10] [µM]	IC50 ratio cisplatin/complex, CCD-19Lu [2]	further results
> 100	15.2 ± 6.1	16.2 ± 1.6	6.9 ± 0.1	1.7	0.7	2.1	C1=Cc2nc1c(-c1ccccc1)c1ccc([n-]1)c(-c1ccccc1)c1nc(c(-c3ccccc3)c3ccc([n-]3)c2-c2ccccc2)C=C1.CC(=O)C=C(C)[O-].[Yb+3] [Complex 2a]	25.1 ± 2.6	–	17.1 ± 1.3	3.6	IC50 ratio cisplatin/complex, HepG2 [10, 16]: 0.3
–	–	–	–	–	–	–	Cn1cnc(N)c2ncnc1-2 [Complex 3-MA, 3-methyladenine, reference compound]	–	–	–	–	cell viability after pre-treatment with 3-MA alone [11]: did not affect cell viability
> 100	5.6 ± 1.5	9.4 ± 0.3	2.1 ± 0.3	4.6	1.2	7.0	[Yb2(TPP)2]μ-C2O4 [Complex 2b]	16 ± 2.9	16.8 ± 0.01	–	5.6	decrease in Soret band intensity, reduced glutathione, 2 h ([12]; 2 h): 2%; decrease in Soret band intensity, reduced glutathione, 24 h ([12]; 24 h): 19%; IC50 ratio cisplatin/complex, CNE2 [3, 16]: 3.4; hyprochromicity on addition of calf thymus DNA ([13]; <5% DMSO, until saturation, 410 nm (1), 430 nm (2b)): 23%; binding constant K with calf thymus DNA ([13]; UV-vis absorption titration, 20° C.): (5.49±0.8)×10^5 mol^−1dm^3; cell morphology (type of cell death) under confocal microscopy [14]: both living and apoptotic cells were observed; decrease in Soret band intensity [15]: 5%

Compound	IC50 [1] [µM]	IC50 [4] [µM]	IC50 [6] [µM]	IC50 [8] [µM]	IC50 ratio cisplatin/complex, HCT-8 [4]	IC50 ratio cisplatin/complex, SUNE1 [6]	IC50 ratio cisplatin/complex, HeLa [8]	IC50 [2] [µM]	IC50 [3] [µM]	IC50 [10] [µM]	IC50 ratio cisplatin/complex, CCD-19Lu [2]	further results
N.N.[Cl][Pt][Cl] [Cisplatin, cis-diamminedichloroplatinum[II], reference compound]	35.4 ± 5	26.1 ± 2.1	11.8 ± 1.2	14.2 ± 8.2	–	–	–	90.6 ± 42.3	57.6 ± 4.6	4.76 ± 0.7	–	IC50 [5]: 39.8 ± 2.38 µM; IC50 [7]: 32.6 ± 1.94 µM; IC50 [9]: 45.8 ± 4.13 µM
